The values that follow come from paper PMC5681660, “Reduced hepatitis B and D viral entry using clinically applied drugs as novel inhibitors of the bile acid transporter NTCP” (Scientific Reports, 2017).

Where a name gives a salt, the structure may show the parent alone. Read-outs that look alike come from different tables or passages of the source.

Experiment [1] has as its target T1, human NTCP (Homo sapiens, UniProt Q14973).
T1 sequence (Q14973 1-349): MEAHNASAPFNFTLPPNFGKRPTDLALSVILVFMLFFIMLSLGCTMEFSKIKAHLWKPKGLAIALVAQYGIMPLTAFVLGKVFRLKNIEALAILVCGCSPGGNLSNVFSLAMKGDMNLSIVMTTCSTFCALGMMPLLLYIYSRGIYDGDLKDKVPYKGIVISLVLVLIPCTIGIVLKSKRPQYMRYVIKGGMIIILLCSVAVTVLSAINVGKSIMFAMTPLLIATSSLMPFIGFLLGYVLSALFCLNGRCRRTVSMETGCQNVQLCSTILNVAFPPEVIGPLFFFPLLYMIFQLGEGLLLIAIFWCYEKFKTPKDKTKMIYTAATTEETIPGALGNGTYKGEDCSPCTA
In words: Screening taurocholate uptake assay (96-well, [14C]taurocholate, 10 µM drug).

For experiment [2], the target named is T1, human NTCP. As to the kind of experiment: Screening fluorescent competitive Myrcludex B-FITC binding assay (96-well, 10 µM drug).
Setting [3] is: Prestwick library screen, taurocholate uptake, 10 µM drug.
[4] abbreviates: ranking score beside the functional and binding assay B-scores of the screen.
[5] abbreviates: Prestwick library screen, Myrcludex B-FITC binding, 10 µM drug.
Setting [6] is: combined ranking from functional and binding screening assays.
Setting [7] is: screen, 10 µM drug, taurocholate uptake.
Setting [8] is: screen, 10 µM drug, Myrcludex B-FITC binding.
[9] abbreviates: Prestwick library screen, 10 µM drug, B-score of taurocholate uptake.
The mark [10] stands for this setting: combined ranking from functional and binding assay B-scores.
The mark [11] stands for this setting: Prestwick library screen, 10 µM drug, B-score of Myrcludex B-FITC binding.

With `CC(C(=O)O)c1ccc2c(c1)Cc1cccnc1O2` (stereo not drawn) [Pranoprofen], the B-score functional assay at human NTCP [1] (setting [3]) is -0.016. At human NTCP [1] (setting [4]), this compound displayed a Ranking score of 817.912. At human NTCP [2] (setting [5]), this compound gave a B-score binding assay of 1.204.
For `COc1cc([S+](C)[O-])ccc1-c1nc2ncccc2[nH]1` (stereo not drawn) [Sulmazole], the Ranking score at human NTCP [1] (setting [6]) is recorded as 402.209. For the same compound, the B-score functional assay on human NTCP [1] (setting [7]) is 0.016. The B-score binding assay at human NTCP [2] (setting [8]) is listed as -0.978.
Take `CC(=O)OCC(=O)[C@@]1(O)CC[C@H]2[C@@H]3CCC4=CC(=O)CC[C@]4(C)[C@H]3[C@@H](O)C[C@@]21C` [Cortisol acetate]: on human NTCP [1] (setting [3]), the B-score functional assay came to 0.009. At human NTCP [1] (setting [4]), this compound gave a Ranking score of 752.137. The compound further gave a B-score binding assay on human NTCP [2] (setting [5]) of 0.369.
For `Nc1ncn([C@@H]2O[C@H](CO)[C@@H](O)[C@H]2O)c(=O)n1` [Azacytidine-5], the B-score functional assay at human NTCP [1] (setting [9]) was 0.011. Besides, the Ranking score on human NTCP [1] (setting [10]) is reported as 847.665. The same compound gave a B-score binding assay on human NTCP [2] (setting [11]) of 1.257.
Turning to `CC(CCc1ccccc1)NC(C)C(O)c1ccc(O)cc1` (stereo not drawn) [Nylidrin], the Ranking score on human NTCP [1] (setting [6]) came to 363.793. Besides, the B-score functional assay at human NTCP [1] (setting [7]) is reported as -0.121. On human NTCP [2] (setting [8]), the B-score binding assay is recorded as -0.92.
Take `CCCCCCNC(=O)n1cc(F)c(=O)[nH]c1=O` [Carmofur]: at human NTCP [1] (setting [6]), the Ranking score is listed as 358.68. In addition, the B-score functional assay on human NTCP [1] (setting [7]) is reported as -2.036. The same compound had a B-score binding assay on human NTCP [2] (setting [8]) of 0.877.
In the case of `Cc1c(-c2ccccc2)oc2c(C(=O)OCCN3CCCCC3)cccc2c1=O` [Flavoxate hydrochloride], at human NTCP [1] (setting [3]), the B-score functional assay is reported as -0.169. Also, the Ranking score on human NTCP [1] (setting [4]) amounted to 734.394. The compound further displayed a B-score binding assay on human NTCP [2] (setting [5]) of 1.224.
As for `CC(=O)OCC(=O)[C@@]1(OC(C)=O)[C@@H](C)C[C@H]2[C@@H]3C[C@H](F)C4=CC(=O)C=C[C@]4(C)[C@@]3(F)[C@@H](O)C[C@@]21C` [Diflorasone Diacetate], on human NTCP [1] (setting [6]), the Ranking score is listed as 327.658. The B-score functional assay on human NTCP [1] (setting [7]) was -0.194. In addition, the B-score binding assay at human NTCP [2] (setting [8]) is -1.118.
The corresponding values for `C=CC[N@@+]12CC[C@@]34c5ccccc5N5/C=C6/[C@H]7C[C@H]8[C@@]9(CC[N@@+]8(CC=C)C/C7=C/CO)c7ccccc7N(/C=C(/[C@@H](C[C@@H]31)/C(=C\CO)C2)[C@H]54)[C@@H]69.[Cl-].[Cl-]` [Alcuronium chloride] are 375.739, 1.096 and -1.767.
At human NTCP [1] (setting [3]), `Cn1c(=O)c2c(ncn2CCO)n(C)c1=O` [Etofylline] gave a B-score functional assay of 0.319. On human NTCP [1] (setting [4]), this compound returned a Ranking score of 831.39. At human NTCP [2] (setting [5]), this compound came in with a B-score binding assay of 0.258.
As to `C[C@]12CC[C@@H](O)C[C@@H]1CC[C@@H]1[C@@H]2CC[C@]2(C)C(=O)CC[C@@H]12` [Androsterone], at human NTCP [1], the B-score functional assay amounted to 0.451 and the Ranking score amounted to 969.912. This compound yielded a B-score binding assay at human NTCP [2] of 1.069.
For the compound `CN(C)CCOC(C)(c1ccccc1)c1ccccn1` (stereo not drawn) [Doxylamine succinate], at human NTCP [1] (setting [6]), the Ranking score turned out to be 393.435. For the same compound, at human NTCP [1] (setting [7]), the B-score functional assay is on record as 0.231. For the same compound, on human NTCP [2] (setting [8]), the B-score binding assay is reported as -1.318.
As to `O=C1NCC2(CCN(CCc3ccccc3)CC2)O1` [Fenspiride hydrochloride], the B-score functional assay on human NTCP [1] (setting [3]) is reported as 0.107. On human NTCP [1] (setting [4]), this compound showed a Ranking score of 788.391. The compound further returned a B-score binding assay on human NTCP [2] (setting [5]) of 0.26.
In the case of `CC[N+](C)(C)c1cccc(O)c1` [Edrophonium chloride], the Ranking score on human NTCP [1] (setting [6]) was determined as 420.888. Besides, the B-score functional assay on human NTCP [1] (setting [7]) is -1.061. This compound also showed a B-score binding assay on human NTCP [2] (setting [8]) of 0.083.
Turning to `C[C@]12CC[C@H](O)C[C@@H]1CC[C@@H]1[C@@H]2CC[C@]2(C)C(=O)CC[C@@H]12` [Epiandrosterone], on human NTCP [1], the B-score functional assay stood at 2.177 and the Ranking score was 1232.82. The compound also came in with a B-score binding assay at human NTCP [2] of 2.961.
`Cl.Nc1c(Br)cc(Br)cc1CNC1CCC(O)CC1` (stereo not drawn) [Ambroxol hydrochloride]: at human NTCP [1] (setting [9]), the B-score functional assay turned out to be 0.006. Moreover, the Ranking score on human NTCP [1] (setting [10]) was found to be 860.528. In addition, the B-score binding assay at human NTCP [2] (setting [11]) was determined as 1.513.
With `C=CCOc1ccccc1OCC(O)CNC(C)C` (stereo not drawn) [Oxprenolol hydrochloride], the Ranking score at human NTCP [1] (setting [6]) worked out at 434.185. The B-score functional assay on human NTCP [1] (setting [7]) was -0.061. Moreover, the B-score binding assay at human NTCP [2] (setting [8]) is given as -0.666.
At human NTCP [1] (setting [3]), `C[C@H](N[C@@H](CCc1ccccc1)C(=O)O)C(=O)N1CCC[C@H]1C(=O)O.O.O` [Enalaprilat dihydrate] registered a B-score functional assay of 0.051. The Ranking score on human NTCP [1] (setting [4]) is 844.248. The same compound returned a B-score binding assay at human NTCP [2] (setting [5]) of 0.874.
The matching figures for `CC(=O)Nc1c(I)c(NC(C)=O)c(I)c(C(=O)O)c1I.O.O` [Diatrizoic acid dihydrate]: -0.248, 739.319 and 1.833.
Turning to `NS(=O)(=O)c1cc2c(cc1Cl)N=CNS2(=O)=O` [Chlorothiazide], the B-score functional assay on human NTCP [1] (setting [9]) came to 1.41. At human NTCP [1] (setting [10]), the Ranking score worked out at 967.179. This compound came in with a B-score binding assay at human NTCP [2] (setting [11]) of 0.263.
Take `CCN[C@H]1C[C@H](C)S(=O)(=O)c2sc(S(N)(=O)=O)cc21` [Dorzolamide hydrochloride]: the Ranking score at human NTCP [1] (setting [6]) is on record as 369.324. Moreover, at human NTCP [1] (setting [7]), the B-score functional assay was -0.44. For the same compound, the B-score binding assay at human NTCP [2] (setting [8]) is on record as -0.624.
At human NTCP [1] (setting [9]), `O=C(N/N=C/c1ccc([N+](=O)[O-])o1)c1ccc(O)cc1` [Nifuroxazide] had a B-score functional assay of 2.774. The Ranking score at human NTCP [1] (setting [10]) is listed as 1088.47. The compound further returned a B-score binding assay on human NTCP [2] (setting [11]) of 0.661.
As to `C#CCN(C)Cc1ccccc1` [Pargyline hydrochloride], the B-score functional assay on human NTCP [1] (setting [3]) is -0.107. At human NTCP [1] (setting [4]), this compound came in with a Ranking score of 685.259. This compound also gave a B-score binding assay at human NTCP [2] (setting [5]) of 0.419.
Turning to `CCCCNc1ccc(C(=O)OCCOCCOCCOCCOCCOCCOCCOCCOCCOC)cc1` [Benzonatate], the B-score functional assay at human NTCP [1] (setting [9]) amounted to 0.062. The Ranking score at human NTCP [1] (setting [10]) came to 933.857. The compound further yielded a B-score binding assay at human NTCP [2] (setting [11]) of 2.274.
`CC(C)[C@H]1CC[C@H](C(=O)N[C@H](Cc2ccccc2)C(=O)O)CC1` [Nateglinide]: on human NTCP [1] (setting [6]), the Ranking score stood at 461.181. The B-score functional assay at human NTCP [1] (setting [7]) was -1.02. For the same compound, the B-score binding assay on human NTCP [2] (setting [8]) stood at 0.322.
For `OC[C@H]1O[C@@H](Oc2ccc(O)cc2)[C@H](O)[C@@H](O)[C@@H]1O` [Arbutin], the B-score functional assay at human NTCP [1] (setting [9]) was 0.864. For the same compound, at human NTCP [1] (setting [10]), the Ranking score came to 944.447. This compound registered a B-score binding assay on human NTCP [2] (setting [11]) of 0.372.
The matching figures for `CN1CCCN(C(c2ccccc2)c2ccc(Cl)cc2)CC1.Cl.Cl` (stereo not drawn) [Homochlorcyclizine dihydrochloride]: 0.737, 1053.65 and 1.404.
The corresponding values for (-) -Levobunolol hydrochloride are 0.733, 1039.8 and 1.256.
For `CC(C)Cn1cnc2c(N)nc3ccccc3c21` [Imiquimod], on human NTCP [1], the B-score functional assay was -0.019 and the Ranking score is reported as 554.076. On human NTCP [2], the B-score binding assay was -0.174.
Regarding `OCc1cc(C(O)CNCCCCCCOCCCCc2ccccc2)ccc1O` (stereo not drawn) [Salmeterol], the Ranking score on human NTCP [1] (setting [6]) turned out to be 391.804. At human NTCP [1] (setting [7]), this compound yielded a B-score functional assay of 0.004. Moreover, the B-score binding assay at human NTCP [2] (setting [8]) was -0.999.
